In series [1] the target is α4β1 integrin (VLA-4) on Ramos cells / recombinant human VCAM-1 (extracellular domains 1–3) (Homo sapiens, UniProt P05556+P13612). Put plainly: Adhesion of Ramos cells to immobilized VCAM-1 (domains 1–3). In kind it is cell-based. Also on record: host or cells: Ramos cells. As to conditions: Ramos VCAM-1 assay; observed IC50 value ranges. An excerpt:
In Vitro Assay: Adhesion of Ramos Cells to Immobilized VCAM-1 (Domains 1–3) Preparation of VCAM-1 (Extracellular Domains 1–3)
Complementary DNA (cDNA) encoding 7-domain form of VCAM-1 (GenBank accession #M60335) was obtained using Rapid-Screen™ cDNA library panels (OriGene Technologies, Inc) at Takara Gene Analysis Center (Shiga, Japan). The primers used were 5′-CCAAGGCAGAGTACGCAAAC-3′ (sense) and 5′-TGGCAGGTATTATTAAGGAG-3′ (antisense). PCR amplification of the 3-domain VCAM-1 cDNA was perform using Pƒ. DNA polymerase (Stratagene) with the following sets of primers: (U-VCAMdl-3) 5′-CCATATGGTACCTGATCAATTTAAAATCGAGACCACCCCAGAA-3′; (L-VCAMdl-3) 5′-CCATATAGCAATCCTAGGTCCAGGGGAGATCTCAACAGTAAA-3′. PCR cycle was 94° C. for 45 sec, 55° C. for 45 sec, 72° C. for 2 min, repeating 15 cycles. After the purification of the PCR product, the fragment was digested with KpnI-AvrII. The digested fragment was ligated into pBluescript IISK(−) (Strategene), which was linearized by digesting with KpnI-XhoI. The ligation was followed by transformation to a Dam/Dcm methylase-free E. coli strain SCS110 (Strategene) to create the donor plasmid pHH7. To direct VCAM-1 molecule into the insect cell secretory pathway, the VCAM-1 coding sequence was fused to signal peptide sequence of honeybee melittin. The resulting melittin-VCAM fusion was placed in correct orientation to the baculovirus polyhedrin promoter. Baculovirus transfer vector containing first 3-domain form VCAM-1 (pH10) was constructed by ligation of 0.9 kb fragment from AvrII/Klenow/BclI digests of pH7 into SalI/Klenow/BamHI digests of pMelBacB (Invitrogen). […] The recombinant virus was amplified by infection to High-Five™ insect cells for 5–6 days, and virus titer was determined by plaque assay.
High-Five™ insect cells were pelleted in a 225 ml conical tube by centrifugation at 1000 rpm for 5 min. […] Protein concentration was determined by using Coomassie protein assay reagent (Pierce) according to the manufacture's instruction. […]
Preparation of Fluorescence Labeled Ramos Cells […]

Where only a bound is given, the exact number is not on record here.

α4β1 integrin (VLA-4) on Ramos cells / recombinant human VCAM-1 (extracellular domains 1–3), sequence (P13612 34-1032): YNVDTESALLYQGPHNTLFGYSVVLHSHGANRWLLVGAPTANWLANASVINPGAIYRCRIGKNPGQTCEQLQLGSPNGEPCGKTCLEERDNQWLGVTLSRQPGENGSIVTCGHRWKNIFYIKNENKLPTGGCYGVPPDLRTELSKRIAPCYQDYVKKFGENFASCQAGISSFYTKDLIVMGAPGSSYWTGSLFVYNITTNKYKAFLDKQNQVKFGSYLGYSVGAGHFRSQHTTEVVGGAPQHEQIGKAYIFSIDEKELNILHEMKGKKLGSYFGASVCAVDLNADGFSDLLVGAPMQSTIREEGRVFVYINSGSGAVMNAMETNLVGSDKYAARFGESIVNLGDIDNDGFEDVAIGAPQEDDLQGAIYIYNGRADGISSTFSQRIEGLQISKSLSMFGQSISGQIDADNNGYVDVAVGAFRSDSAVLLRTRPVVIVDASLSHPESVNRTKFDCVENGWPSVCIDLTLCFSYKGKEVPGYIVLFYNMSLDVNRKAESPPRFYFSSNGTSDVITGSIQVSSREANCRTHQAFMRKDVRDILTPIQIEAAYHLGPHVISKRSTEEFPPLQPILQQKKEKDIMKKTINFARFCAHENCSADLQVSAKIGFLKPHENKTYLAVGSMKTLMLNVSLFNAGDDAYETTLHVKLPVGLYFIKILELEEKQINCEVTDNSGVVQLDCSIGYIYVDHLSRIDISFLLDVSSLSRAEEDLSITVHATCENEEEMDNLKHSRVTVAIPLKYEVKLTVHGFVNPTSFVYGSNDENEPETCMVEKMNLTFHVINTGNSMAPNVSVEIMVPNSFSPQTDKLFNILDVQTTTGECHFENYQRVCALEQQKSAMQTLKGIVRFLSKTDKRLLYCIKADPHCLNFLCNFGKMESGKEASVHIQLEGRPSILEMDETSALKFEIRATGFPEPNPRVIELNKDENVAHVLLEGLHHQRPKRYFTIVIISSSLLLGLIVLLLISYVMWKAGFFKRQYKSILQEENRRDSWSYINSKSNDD
α4β1 integrin (VLA-4) on Ramos cells / recombinant human VCAM-1 (extracellular domains 1–3), sequence (P05556 21-798): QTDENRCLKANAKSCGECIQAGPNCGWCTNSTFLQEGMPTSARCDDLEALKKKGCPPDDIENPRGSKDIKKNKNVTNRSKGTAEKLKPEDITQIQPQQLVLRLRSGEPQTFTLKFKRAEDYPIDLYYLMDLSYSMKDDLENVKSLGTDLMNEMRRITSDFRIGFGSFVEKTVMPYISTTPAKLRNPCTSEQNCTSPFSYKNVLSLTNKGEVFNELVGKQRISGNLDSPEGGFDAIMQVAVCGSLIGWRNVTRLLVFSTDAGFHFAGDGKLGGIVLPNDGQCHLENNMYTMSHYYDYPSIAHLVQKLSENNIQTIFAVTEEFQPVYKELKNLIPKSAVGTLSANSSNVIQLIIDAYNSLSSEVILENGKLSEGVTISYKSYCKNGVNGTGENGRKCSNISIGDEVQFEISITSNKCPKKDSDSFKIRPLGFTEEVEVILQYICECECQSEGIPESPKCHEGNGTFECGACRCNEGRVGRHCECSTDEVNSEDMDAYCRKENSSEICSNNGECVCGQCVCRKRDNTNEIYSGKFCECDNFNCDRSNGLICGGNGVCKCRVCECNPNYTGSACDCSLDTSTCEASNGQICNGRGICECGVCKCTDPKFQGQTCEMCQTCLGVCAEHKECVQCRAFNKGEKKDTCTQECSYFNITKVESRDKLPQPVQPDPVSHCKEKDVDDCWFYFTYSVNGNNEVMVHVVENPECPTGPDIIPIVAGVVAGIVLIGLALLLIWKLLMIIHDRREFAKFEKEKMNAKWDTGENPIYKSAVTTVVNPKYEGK

Regarding `Cc1ccccc1NC(=O)Nc1ccc(NC(=O)C(CC(=O)Nc2ccc(C(=O)O)cc2)c2ccccc2)cc1` (centres unmarked) [Example 1, 4-[(4-{[4-({[(2-Methylphenyl)amino]carbonyl}amino)phenyl]-amino}-4-oxo-3-phenylbutanoyl)amino]benzoic acid], the melting point came to 169 °C. In addition, the half-inhibitory concentration (IC50) in series [1] is below 1 µM.
For the molecule `Cc1ccccc1NC(=O)Nc1ccc(NC(=O)CC(C(=O)Nc2ccc(C(=O)O)cc2)c2ccccc2)cc1` (centres unmarked) [Example 2, 4-[(4-{[4-({[(2-Methyl-phenyl)amino]carbonyl}-ami-no)phenyl]amino}-4-oxo-2-phenyl-butanoyl)amino]benzoic acid], the IC50 in series [1] is above 10 µM.
Regarding `Cc1ccccc1NC(=O)Nc1ccc(CNC(=O)CC(C(=O)Nc2ccc(C(=O)O)cc2)c2ccccc2)cc1` (centres unmarked) [Example 4, 4-[(4-{[4-({[(2-Methyl-phenyl)amino]carbonyl}-ami-no)benzyl]amino}-4-oxo-2-phenyl-butanoyl)-ami-no]benzoic acid], the melting point came out at 126 °C. In series [1], the half-maximal inhibitory concentration (IC50) was below 1 µM.

For the origin of these results see patent US7064229B2, “Succinic acid derivatives” (Bayer Healthcare AG, priority 2001, dated 2006).
